Where two headings read alike, the source gives them in different places.
Experiments:
Assay type in all cases: cell-based
[1] = tested on: E. coli (ATCC BAA 1427); test: Minimal bactericidal concentration by serial 2-fold dilution
Procedure: (§1) The minimal bactericidal concentration (MBC) of ethyl lauroyl arginate hydrochloride (LAE) was determined against S. aureus (ATCC 6538), P. aeruginosa (ATCC 15442), and E. coli (ATCC BAA 1427) by serial 2-fold dilution experiments. A solution of chlorhexidine (0.025% w/w) was used as a positive control and comparator.

[2] = tested on: P. aeruginosa (ATCC 15442); test: as above
Procedure: as §1

[3] = tested on: S. aureus (ATCC 6538); test: as above
Procedure: as §1

[4] = tested on: E. coli (ATCC BAA 1427); test: Minimum inhibitory concentration / growth inhibition by serial 2-fold dilution; details: for Average Growth Inhibition (%): average of triplicate
Procedure: as §1, with “inhibitory” for “bactericidal”, “(MIC, the minimum inhibitory concentration required for 90% growth reduction)” for “(MBC)”, “hydrochloride” for “hydrochloride (LAE)”

[5] = tested on: P. aeruginosa (ATCC 15442); test: as above; details: for Average Growth Inhibition (%): average of triplicate
Procedure: as §1, with “inhibitory” for “bactericidal”, “(MIC, the minimum inhibitory concentration required for 90% growth reduction)” for “(MBC)”, “hydrochloride” for “hydrochloride (LAE)”

[6] = tested on: S. aureus (ATCC 6538); test: as above; details: for Average Growth Inhibition (%): average of triplicate
Procedure: as §1, with “inhibitory” for “bactericidal”, “(MIC, the minimum inhibitory concentration required for 90% growth reduction)” for “(MBC)”, “hydrochloride” for “hydrochloride (LAE)”

[7] = tested on: S. aureus; test: Chequerboard assay, FIC and synergy analysis; details: for MIC: Staphylococcus aureus
Procedure: (§2) Chlorhexidine gluconate (CHG) and ethyl lauroyl arginate hydrochloride (LAE) were analyzed by chequerboard assay with each test organism to determine potential additive, synergistic, and antagonistic activity. The test organisms S. aureus, P. aeruginosa, and E. coli were tested at ranges of chlorhexidine gluconate (0.122-15.625 μg/mL, 1.25-160 μg/mL, and 0.125-16 μg/mL, respectively) and ethyl lauroyl arginate hydrochloride (LAE) (0.117-15 μg/mL, 0.4688-60 μg/mL, and 0.2344-30 μg/mL, respectively). FIC was calculated by the following Equation 2: […]

[8] = tested on: E. coli; test: Chequerboard assay, FIC and synergy analysis; details: for MIC: Escherichia coli
Procedure: as §2

[9] = tested on: P. aeruginosa; test: Chequerboard assay, FIC and synergy analysis; details: for MIC: Pseudomonas aeruginosa
Procedure: as §2

[10] = 250 μg/mL (0.025% w/w), positive control
[11] = 250 μg/mL (0.025% w/w), positive control, listed as chlorhexidine
[12] = read-out: MIC of CHG in Presence of LAE
[13] = 0.46875 μg/mL, average over triplicate
[14] = 0.9375 μg/mL, average over triplicate
[15] = 1.875 μg/mL, average over triplicate
[16] = 3.75 μg/mL, average over triplicate
[17] = 7.5 μg/mL, average over triplicate
[18] = 15 μg/mL, average over triplicate
[19] = 30 μg/mL, average over triplicate
[20] = 60 μg/mL, average over triplicate
[21] = defined as having less than 500 CFU/mL, hydrochloride
[22] = inhibited greater than 90% growth

## N=C(NCCCCCCNC(=N)NC(=N)Nc1ccc(Cl)cc1)NC(=N)Nc1ccc(Cl)cc1 [Chlorhexidine gluconate, reference compound]
[1]; [10]
  CFU/mL: 0 CFU/mL
  Number of Colonies: 0
[1]; [11]
  Number of Colonies: no colonies
[2]; [10]
  CFU/mL: 0 CFU/mL
  Number of Colonies: 0
[2]; [11]
  Number of Colonies: no colonies
[3]; [10]
  CFU/mL: 0 CFU/mL
  Number of Colonies: 0
[3]; [11]
  Number of Colonies: no colonies
[4]; Escherichia coli, BAA1427, 250 μg/mL (0.025% w/w), positive control
  inhibition at 250 µg/mL: 63%
[5]; Pseudomonas aeruginosa, ATCC15442, read-out: Average Growth Inhibition (%)
  inhibition at 250 µg/mL: 81%
[6]; Staphylococcus aureus, ATCC6538, read-out: Average Growth Inhibition (%)
  inhibition at 250 µg/mL: 121%
[7]; read-out: MIC of CHG Alone
  MIC: 1.95 µg/mL
[7]; [12]
  MIC: 0.977 µg/mL
[8]; read-out: MIC of CHG Alone
  MIC: 8 µg/mL
[8]; [12]
  MIC: 4 µg/mL
[9]; read-out: MIC of CHG Alone
  MIC: 40 µg/mL
[9]; [12]
  MIC: 10 µg/mL

## CCCCCCCCCCCC(=O)N[C@@H](CCCN=C(N)N)C(=O)OCC.Cl [ethyl lauroyl arginate hydrochloride]
[1]; 0.46875 μg/mL
  CFU/mL: Lawn
[1]; [13]
  Number of Colonies: Lawn (‘Lawn’ indicates too many colonies to accurately count (e.g., greater than 250 colonies on an agar plate))
[1]; 0.9375 μg/mL
  CFU/mL: Lawn
[1]; [14]
  Number of Colonies: Lawn (‘Lawn’ indicates too many colonies to accurately count (e.g., greater than 250 colonies on an agar plate))
[1]; 1.875 μg/mL
  CFU/mL: Lawn
[1]; [15]
  Number of Colonies: Lawn (‘Lawn’ indicates too many colonies to accurately count (e.g., greater than 250 colonies on an agar plate))
[1]; 3.75 μg/mL
  CFU/mL: Lawn
[1]; [16]
  Number of Colonies: Lawn (‘Lawn’ indicates too many colonies to accurately count (e.g., greater than 250 colonies on an agar plate))
[1]; 7.5 μg/mL
  CFU/mL: Lawn
[1]; [17]
  Number of Colonies: Lawn (‘Lawn’ indicates too many colonies to accurately count (e.g., greater than 250 colonies on an agar plate))
[1]; 15 μg/mL
  CFU/mL: 0 CFU/mL
[1]; [18]
  Number of Colonies: 0
[1]; 30 μg/mL
  CFU/mL: 0 CFU/mL
[1]; [19]
  Number of Colonies: 0
[1]; 60 μg/mL
  CFU/mL: 0 CFU/mL
[1]; [20]
  Number of Colonies: 0
[1]; [21]
  MBC: 15 µg/mL
[2]; 0.46875 μg/mL
  CFU/mL: Lawn
[2]; [13]
  Number of Colonies: Lawn (‘Lawn’ indicates too many colonies to accurately count (e.g., greater than 250 colonies on an agar plate))
[2]; 0.9375 μg/mL
  CFU/mL: Lawn
[2]; [14]
  Number of Colonies: Lawn (‘Lawn’ indicates too many colonies to accurately count (e.g., greater than 250 colonies on an agar plate))
[2]; 1.875 μg/mL
  CFU/mL: Lawn
[2]; [15]
  Number of Colonies: Lawn (‘Lawn’ indicates too many colonies to accurately count (e.g., greater than 250 colonies on an agar plate))
[2]; 3.75 μg/mL
  CFU/mL: Lawn
[2]; [16]
  Number of Colonies: Lawn (‘Lawn’ indicates too many colonies to accurately count (e.g., greater than 250 colonies on an agar plate))
[2]; 7.5 μg/mL
  CFU/mL: Lawn
[2]; [17]
  Number of Colonies: Lawn (‘Lawn’ indicates too many colonies to accurately count (e.g., greater than 250 colonies on an agar plate))
[2]; 15 μg/mL
  CFU/mL: Lawn
[2]; [18]
  Number of Colonies: Lawn (‘Lawn’ indicates too many colonies to accurately count (e.g., greater than 250 colonies on an agar plate))
[2]; 30 μg/mL
  CFU/mL: 0 CFU/mL
[2]; [19]
  Number of Colonies: 0
[2]; 60 μg/mL
  CFU/mL: 0 CFU/mL
[2]; [20]
  Number of Colonies: 0
[2]; [21]
  MBC: 30 µg/mL
[3]; 0.46875 μg/mL
  CFU/mL: Lawn
[3]; [13]
  Number of Colonies: Lawn (‘Lawn’ indicates too many colonies to accurately count (e.g., greater than 250 colonies on an agar plate))
[3]; 0.9375 μg/mL
  CFU/mL: Lawn
[3]; [14]
  Number of Colonies: Lawn (‘Lawn’ indicates too many colonies to accurately count (e.g., greater than 250 colonies on an agar plate))
[3]; 1.875 μg/mL
  CFU/mL: Lawn
[3]; [15]
  Number of Colonies: Lawn (‘Lawn’ indicates too many colonies to accurately count (e.g., greater than 250 colonies on an agar plate))
[3]; 3.75 μg/mL
  CFU/mL: 500 CFU/mL
[3]; [16]
  Number of Colonies: 5
[3]; 7.5 μg/mL
  CFU/mL: 0 CFU/mL
[3]; [17]
  Number of Colonies: 0
[3]; 15 μg/mL
  CFU/mL: 0 CFU/mL
[3]; [18]
  Number of Colonies: 0
[3]; 30 μg/mL
  CFU/mL: 0 CFU/mL
[3]; [19]
  Number of Colonies: 0
[3]; 60 μg/mL
  CFU/mL: 0 CFU/mL
[3]; [20]
  Number of Colonies: 0
[3]; [21]
  MBC: 3.75 µg/mL
[4]; 0.46875 μg/mL
  Average Growth Inhibition (%): 3%
[4]; 0.9375 μg/mL
  Average Growth Inhibition (%): 6%
[4]; 1.875 μg/mL
  Average Growth Inhibition (%): 5%
[4]; 3.75 μg/mL
  Average Growth Inhibition (%): 4%
[4]; 7.5 μg/mL
  Average Growth Inhibition (%): 4%
[4]; 15 μg/mL
  Average Growth Inhibition (%): 100%
[4]; 30 μg/mL
  Average Growth Inhibition (%): 100%
[4]; 60 μg/mL
  Average Growth Inhibition (%): 99%
[5]; 0.46875 μg/mL
  Average Growth Inhibition (%): 2%
[5]; 0.9375 μg/mL
  Average Growth Inhibition (%): 2%
[5]; 1.875 μg/mL
  Average Growth Inhibition (%): 2%
[5]; 3.75 μg/mL
  Average Growth Inhibition (%): 4%
[5]; 7.5 μg/mL
  Average Growth Inhibition (%): 5%
[5]; 15 μg/mL
  Average Growth Inhibition (%): 2%
[5]; 30 μg/mL
  Average Growth Inhibition (%): 100%
[5]; 60 μg/mL
  Average Growth Inhibition (%): 99%
[5]; [22]
  MIC: 30 µg/mL
[6]; 0.46875 μg/mL
  Average Growth Inhibition (%): 7%
[6]; 0.9375 μg/mL
  Average Growth Inhibition (%): -1%
[6]; 1.875 μg/mL
  Average Growth Inhibition (%): -17%
[6]; 3.75 μg/mL
  Average Growth Inhibition (%): 100%
[6]; 7.5 μg/mL
  Average Growth Inhibition (%): 101%
[6]; 15 μg/mL
  Average Growth Inhibition (%): 101%
[6]; 30 μg/mL
  Average Growth Inhibition (%): 97%
[6]; 60 μg/mL
  Average Growth Inhibition (%): 93%
[6]; [22]
  MIC: 3.75 µg/mL
[7]; alone
  MIC of LAE Alone: 3.75 µg/mL
[7]; in presence of CHG
  MIC of LAE in Presence of CHG: 1.875 µg/mL
[8]; alone
  MIC of LAE Alone: 15 µg/mL
[8]; in presence of CHG
  MIC of LAE in Presence of CHG: 3.75 µg/mL
[9]; alone
  MIC of LAE Alone: 30 µg/mL
[9]; in presence of CHG
  MIC of LAE in Presence of CHG: 7.5 µg/mL

From patent US12629468B2, “Devices and methods for delivering synergistic active agents to target sites” (IRRIMAX Corporation, priority 2023, dated 2026)
